In patent publication US20180132470A1, “CONTROLLED STAND-ALONE MATRIX SYSTEM FOR THE CONTROLLED DISTRIBUTION OF ACTIVE SUBSTANCES” (AB7 Innovation S.A.S.U., priority 2015, published 2018):

Experiment: Release of IR3535 from cast polyurethane matrix, with and without heating activation
Type: physicochemical
Protocol: For the matrix, the same inputs are used as in Example 1. The PMEO is replaced by insecticide (IR3535®), which represents 30% by weight in relation to the total weight of the matrix.
The electronic card is programmed as in Example 2 except that the heating is systematically cut off when the intra-matrix temperature reaches 150° C.
FIG. 4 represents the reference release profile of IR3535® which is a non-volatile substance at ambient temperature. […] The sequential and successive activations were performed for 18 hours at a rate of 10 minutes heating followed by 20 minutes' pause. The intra-matrix temperature measured was 45° C.

- residual quantity of IR3535 in relation to the quantity initially incorporated (after 590 sequences of heating): 9.5 % by weight
- release of IR3535 initially incorporated (after 18 hours, sequential activations 10 min heating / 20 min pause, intra-matrix 45° C., cast polyurethane matrix): up to 3 % by weight
- release of IR3535 by passive diffusion (same polyurethane matrix unheated at ambient temperature, even after 20 hours): releases absolutely nothing
- average quantity of IR3535 released (solely at moments of activation, cast polyurethane matrix): 3.5 mg/h
Structure (SMILES): CCCCN(CCC(=O)OCC)C(C)=O [IR3535®, ethyl-3-acetyl(butyl)amino-propanoate]
